ChEMBL document CHEMBL1143076, “Polydiscamides B-D from a marine sponge Ircinia sp. as potent human sensory neuron-specific G protein coupled receptor agonists” (J Nat Prod, 2008)

experiment: Agonist activity at human sensory neuron-specific G-protein coupled receptor expressed in HEK293 cells assessed as intracellular calcium mobilization by FLIPR; type: functional, cell-based

EC50 | Structure (SMILES)
2.8 µM | CC(C)[C@@H](NC(=O)[C@@H]1CCCN1C(=O)[C@H](Cc1ccc(Br)cc1)NC(=O)[C@@H](C)NC=O)C(=O)N[C@H](C(=O)N[C@H](Cc1c[nH]c2ccccc12)C(=O)N[C@@H](CCCNC(=N)N)C(=O)N[C@H](CS(=O)(=O)O)C(=O)N[C@@H]1C(=O)N(C)[C@@H](CCC(N)=O)C(=O)N[C@H](C(C)C)C(=O)N2CCC[C@H]2C(=O)N[C@H](CC(=O)O)C(=O)O[C@@H]1C)C(C)(C)C [POLYDISCAMIDE D]
1.26 µM | CCC(C)(C)[C@H](NC(=O)[C@H](NC(=O)[C@@H]1CCCN1C(=O)[C@H](Cc1ccc(Br)cc1)NC(=O)[C@@H](C)NC=O)C(C)(C)C)C(=O)N[C@H](Cc1c[nH]c2ccccc12)C(=O)N[C@@H](CCCNC(=N)N)C(=O)N[C@H](CS(=O)(=O)O)C(=O)N[C@@H]1C(=O)N(C)[C@@H](CCC(N)=O)C(=O)N[C@H](C(C)C)C(=O)N2CCC[C@H]2C(=O)N[C@H](CC(=O)O)C(=O)O[C@@H]1C [POLYDISCAMIDE B]
3.57 µM | CCC(C)(C)[C@H](NC(=O)[C@H](NC(=O)[C@@H]1CCCN1C(=O)[C@H](Cc1ccc(Br)cc1)NC(=O)[C@@H](C)NC=O)C(C)C)C(=O)N[C@H](Cc1c[nH]c2ccccc12)C(=O)N[C@@H](CCCNC(=N)N)C(=O)N[C@H](CS(=O)(=O)O)C(=O)N[C@@H]1C(=O)N(C)[C@@H](CCC(N)=O)C(=O)N[C@H](C(C)C)C(=O)N2CCC[C@H]2C(=O)N[C@H](CC(=O)O)C(=O)O[C@@H]1C [POLYDISCAMIDE C]
